From patent US20190358345A1, “A[…]-IN[…] NANOPARTICLES AND PREPARATION METHODS THEREFOR” (CHINA PHARMACEUTICAL UNIVERSITY, priority 2017, published 2019)

Experiment: Dynamic light scattering of nanoparticles
Format: physicochemical
Conditions: self-assembled in aqueous solution
Protocol: The foregoing amphiphilic nonsteroid anti-inflammatory platinum is dissolved in DMF, dropped into an aqueous solution at room temperature, and the DMF is removed by dialysis to obtain an amphiphilic nonsteroid anti-inflammatory platinum nanoparticle solution. The dynamic light scattering results of the antitumor cisplatin-tonifamic acid nanoparticles prepared in this embodiment are shown in FIG. 3, and the means particle size of the nanoparticles is 157 nm.
CDDP (150 mg), AgNO3 (113 mg), tolfenamic acid (131 mg) and Na2CO3 (35.3 mg) are added to a round-bottom flask, then 10 ml of water is added and stirred at room temperature for 24 h in a dark place. The AgCl precipitate is centrifugally discarded, and the filtrate is dried in vacuum. The crude product is purified by silica gel column chromatography using an eluent of methanol:chloroform=1:9 to obtain the cisplatin-tolfenamic acid-based complex in a yield of 53%. The chemical structure of the complex synthesized in this embodiment is as shown in Formula 1. […]

With `Cc1c(Cl)cccc1[N]1c2ccccc2C(=O)[O][Pt]1([NH2])[NH2]` [Embodiment 1, cisplatin-tolfenamic acid-based complex] the “means particle size of the nanoparticles” value was 157 nm.
